Experimental data from paper PMC7217877, “N-AS-triggered SPMs are direct regulators of microglia in a model of Alzheimer’s disease” (Nature Communications, 2020).
Where “and” joins values, the source holds several entries; their conditions need not be identical. Equal entries are not always repeated.

Tests used:
COX2 S565A = target: T1, COX2 S565A (Homo sapiens, UniProt P35354, S565A); test: filter binding assay of [14C] N-AS to COX2; settings: 0.2 uM, replicates
T1 construct: His (N); made in house
T1 sequence (P35354 18-604 S565A): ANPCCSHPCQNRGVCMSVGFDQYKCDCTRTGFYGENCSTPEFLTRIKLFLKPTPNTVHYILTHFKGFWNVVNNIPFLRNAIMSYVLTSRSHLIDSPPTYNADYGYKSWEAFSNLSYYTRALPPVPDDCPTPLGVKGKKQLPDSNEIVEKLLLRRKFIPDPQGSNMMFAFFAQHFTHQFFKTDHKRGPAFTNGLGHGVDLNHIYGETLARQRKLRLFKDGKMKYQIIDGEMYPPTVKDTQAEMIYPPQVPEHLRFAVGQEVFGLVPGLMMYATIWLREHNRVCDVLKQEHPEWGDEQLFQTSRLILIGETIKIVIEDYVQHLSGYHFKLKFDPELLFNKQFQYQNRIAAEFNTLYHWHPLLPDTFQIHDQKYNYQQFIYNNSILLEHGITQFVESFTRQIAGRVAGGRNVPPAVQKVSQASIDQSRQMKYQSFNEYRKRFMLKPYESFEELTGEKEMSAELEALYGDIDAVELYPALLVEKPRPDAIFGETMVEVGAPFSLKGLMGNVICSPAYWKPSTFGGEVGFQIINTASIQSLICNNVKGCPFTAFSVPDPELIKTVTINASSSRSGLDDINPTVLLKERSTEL

microglia = test: SphK activity in primary cells; assay type: cell-based, C57BL/6 mice; settings: Ab 10mM, replicates
Experimental: We confirmed S1P formation through SphK1 enzymatic activity measurements as previously described[11] using a UPLC (Ultra performance liquid chromatography) system (Waters). […] After pre-incubation, 1 mM ATP (Amresco, 0220) was added the mixture, and it was incubated at 37 °C for 1 h. The […] reactions were stopped by adding 53 μl of ethanol, and centrifuged at 15,493×g for 5 min. Thirty microliter of the supernatant was then transferred to a sampling glass vial and 5 μl was applied onto a UPLC system for analysis. S1P formation was followed as phosphorylation of (7-nitro-2-1,3-benzoxadiazol-4-yl)-d-erythro (NBD)-sphingosine (Avanti Polar Lipids) to NBD-S1P. Quantification was achieved by comparison with NBD-S1P (Avanti Polar Lipids) standards.
To confirm the generation and roles of N-AS in neurons, cells from E18 C57BL/6 mice were prepared as previously described. Cortices were dissected and then dissociated followed by incubation in papain (Worthington) at 37 °C for 15 min. […] Aβ 1–42 (10 μM, 24 h, Invitrogen, 03112) was exposed to neurons and the cells were analyzed for the generation and roles of N-AS. […] The human microglia treated with Aβ 1–42 and/or zileuton was incubated with N-AS (2.5 μM, 2 h, Sigma-Aldrich, 01912), and were analyzed for the generation and roles of N-AS.

| Compound | binding velocity (Vbinding) (COX2 S565A) | SphK activity (Fig 3d) (microglia) |
| --- | --- | --- |
| CCCCCCCCCCCCC/C=C/[C@@H](O)[C@H](CO)NC(C)=O [N-AS, N-((2S,3R,E)-1,3-Dihydroxyoctadec-4-en-2-yl)acetamide] | 0.187 nM/min and 0.075 nM/min and 0.292 nM/min |  |
| Ab: Aβ 1–42 (Invitrogen, 03112) used to induce an AD environment in cells |  | 3.655 and 3.493 and 3.944 and 3.366 and 2.386 and 3.719 |
